Test results published in BindingDB's records for doi:10.1021/jm9603072 (University of Paris, 1997).

Biological target: Gastrin/cholecystokinin type B receptor (Cavia porcellus)
Experiment: Inhibition of [3H]pCCK-8 binding to Guinea pig cortex membrane Cholecystokinin type B receptor

Ki: 51 nM
SMILES: C[C@]1(Cc2c[nH]c3ccccc23)NC(=O)CCCCSSCC[C@@H](C(=O)N[C@@H](CC(=O)O)C(=O)N[C@@H](Cc2ccccc2)C(N)=O)NC1=O [N-(1-Carbamoyl-2-phenyl-ethyl)-3-{[(5R,8R)-8-(1H-indol-3-ylmethyl)-8-methyl-7,10-dioxo-1,2-dithia-6,9-diaza-cyclotetradecane-5-carbonyl]-amino}-succinamic acid]
